Experimental data from ChEMBL document CHEMBL1201862, “PubChem BioAssay data set” (2004).
Calls of active or inactive are those of the source.

How the values were obtained:
[1] = biological target: Beta-lactamase (Salmonella choleraesuis (strain SC-B67), UniProt Q5J463); test: Epi-absorbance-based counterscreen for selective VIM-2 inhibitors: dose response biochemical high throughput screening assay to identify inhibitors of TEM-1 serine-beta-lactamase.
[2] = biological target: T1, Beta-lactamase (Pseudomonas aeruginosa, UniProt Q79MP6); test: […] counterscreen for selective VIM-2 inhibitors: dose response biochemical high throughput screening assay to identify inhibitors of IMP-1 metallo-beta-lactamase.
[3] = biological target: T1, Beta-lactamase; test: IMP-1 metallo-beta-lactamase inhibitors, dose response, selectivity assay for VIM-2 inhibitor project, biochemical, epi-absorbance (AID 1920)
[4] = microbe, parasite or virus in culture; type: functional; conditions: Mycobacterium tuberculosis
[5] = cells; type: functional
[6] = biological target: T2, Mannose-6-phosphate isomerase (Homo sapiens, UniProt P34949); test: human PMI inhibitors, high substrate, primary screen, biochemical, fluorescence intensity, high mannose 6-phosphate (AID 1220)
T2 sequence (P34949 whole entry): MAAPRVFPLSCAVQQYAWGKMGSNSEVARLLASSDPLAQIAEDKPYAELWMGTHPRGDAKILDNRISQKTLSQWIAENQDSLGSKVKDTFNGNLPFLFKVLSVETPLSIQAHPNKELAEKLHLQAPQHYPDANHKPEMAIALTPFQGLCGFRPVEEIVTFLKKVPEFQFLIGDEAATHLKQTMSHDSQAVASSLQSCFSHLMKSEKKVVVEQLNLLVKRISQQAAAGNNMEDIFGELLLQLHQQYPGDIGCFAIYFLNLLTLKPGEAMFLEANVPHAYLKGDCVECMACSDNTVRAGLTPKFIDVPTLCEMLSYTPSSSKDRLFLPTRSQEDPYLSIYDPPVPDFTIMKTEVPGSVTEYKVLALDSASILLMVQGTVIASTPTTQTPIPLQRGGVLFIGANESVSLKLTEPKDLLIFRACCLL

[7] = inhibitors of PGC1a acetylation in cells, dose response, cell-based, cherry-picked samples (AID 720514); type: functional;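 also: potency may reflect raised or lowered acetylation signal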
[8] = test system: Vero; test: Vero cell toxicity, dose response, cytotoxicity control, plate reader, cherry-pick samples (AID 687020); type: functional, cell-based; conditions: Chlorocebus sabaeus
[9] = biological target: Kallikrein-7 (Homo sapiens, UniProt P49862); test: Fluorescence Intensity-based biochemical primary high throughput dose response assay to identify activators of kallikrein-7 (K7) zymogen.
[10] = biological target: T3, Caspase-6 (Homo sapiens, UniProt P55212); test: human caspase-6 inhibitors, dose response, biochemical, VEID-R110 fluorescence, cherry-pick (AID 720632)
T3 sequence (P55212 whole entry): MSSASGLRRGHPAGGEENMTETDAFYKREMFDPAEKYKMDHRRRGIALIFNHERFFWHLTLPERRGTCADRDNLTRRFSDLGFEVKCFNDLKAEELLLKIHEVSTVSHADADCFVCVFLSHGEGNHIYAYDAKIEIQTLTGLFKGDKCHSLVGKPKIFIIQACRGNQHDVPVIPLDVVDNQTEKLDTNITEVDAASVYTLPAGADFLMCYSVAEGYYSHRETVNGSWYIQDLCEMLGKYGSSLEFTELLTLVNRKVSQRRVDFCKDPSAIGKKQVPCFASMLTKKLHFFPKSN

[11] = biological target: T4, Small ubiquitin-related modifier 1 (Homo sapiens, UniProt P63165); test: inhibitors of SUMO1 peptide binding, dose response, biochemical, fluorescence polarization, uHTS hits (AID 624382); type: functional; conditions: read-out: IC50_Mean
[12] = biological target: T5, Carboxy-terminal domain RNA polymerase II polypeptide A small phosphatase 1 (Homo sapiens, UniProt Q9GZU7); test: inhibitors of CTDSP1, concentration-response testing, biochemical assay, absorbance-based, actives from ultra-high-throughput screening (AID 540297); type: functional
T5 sequence (Q9GZU7 whole entry): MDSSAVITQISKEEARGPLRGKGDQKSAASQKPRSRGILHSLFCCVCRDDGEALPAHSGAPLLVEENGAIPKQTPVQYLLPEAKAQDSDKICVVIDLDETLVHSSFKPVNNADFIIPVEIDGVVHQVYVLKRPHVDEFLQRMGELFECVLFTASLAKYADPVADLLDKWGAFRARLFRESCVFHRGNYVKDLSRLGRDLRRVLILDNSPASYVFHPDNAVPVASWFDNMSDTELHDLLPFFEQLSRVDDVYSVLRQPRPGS

[13] = biological target: T4, Small ubiquitin-related modifier 1; test: inhibitors of SUMO1 partner interactions, dose response, biochemical, FRET (AID 624383); type: functional; conditions: read-out: IC50_Mean
[14] = CEM21 lymphoblast cell cytotoxicity, dose response, cytotoxicity control for viral fusion inhibitor project, CellTiter-Glo luminescence, cherry-picked (AID 652042); type: functional, cell-based;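 also: potency for signal decrease meaning cytotoxicity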
[15] = test system: INS1; test: beta cell apoptosis inhibitors, cytokine rescue, dose response, luminescence, retest (AID 449756); type: functional, cell-based; conditions: Rattus norvegicus, INS1;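 also: cell death triggered by IL-1 beta plus TNF-alpha plus IFN-gamma mixture; protective hits raise ATP signal compared with cytokine alone wells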
[16] = inhibitors of HIV Env-driven cell fusion, dose response, cherry-pick (AID 652057); type: functional, cell-based
[17] = cytotoxicity toward NIH3T3 fibroblasts, dose response, counter-screen, cell-based, ATP luminescence, mouse fibroblasts (AID 2010); type: functional;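 also: cells exposed to compound for about 90 hours before reading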
[18] = ZM109 Env clade C HIV-1 fusion inhibitors, dose response, HeLa effector, CEM target cells, luciferase, cherry-pick (AID 652058); type: functional, cell-based
[19] = off-target signal loss in HeLa-CEM21 co-culture – HeLa F-luc CTL cells, cherry-picked, counter-screen for HIV-1 Env fusion inhibitor project, dose response (AID 652040); type: functional, cell-based;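 also: potency for signal decrease marking cytotoxic or nonspecific inhibition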
[20] = inhibitors of clade B AD8 Env fusion, dose response, cell-based, cherry-pick (AID 652062); type: functional;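 also: luciferase signal from cell-cell fusion driven by HIV-1 clade B AD8 Env; potency is for inhibitors of fusion seen as a drop in luminescence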
[21] = inhibitors of intracellular T. cruzi replication, confirmation, NIH3T3 host cells, beta-gal luminescence (AID 2044); type: functional, cell-based;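 also: intracellular parasites grown in NIH/3T3 mouse fibroblasts as host cells; luminescent beta-galactosidase reporter signal from transgenic T. cruzi replicating inside host cells; inhibitors lower the luminescence signal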
[22] = HEK293T cell cytotoxicity, dose response, cytotoxicity control for HIV Vif inhibitor project, cherry-picks (AID 652208); type: functional, cell-based
[23] = biological target: T6, Corticotropin-releasing factor receptor 2/Corticotropin-releasing factor-binding protein (Homo sapiens, UniProt P24387+Q13324); test: activators of CRF receptor 2 with binding protein – uHTS hits, confirmation (AID 602473); type: functional; conditions: read-out: EC50_Mean
T6 sequence (Q13324 whole entry): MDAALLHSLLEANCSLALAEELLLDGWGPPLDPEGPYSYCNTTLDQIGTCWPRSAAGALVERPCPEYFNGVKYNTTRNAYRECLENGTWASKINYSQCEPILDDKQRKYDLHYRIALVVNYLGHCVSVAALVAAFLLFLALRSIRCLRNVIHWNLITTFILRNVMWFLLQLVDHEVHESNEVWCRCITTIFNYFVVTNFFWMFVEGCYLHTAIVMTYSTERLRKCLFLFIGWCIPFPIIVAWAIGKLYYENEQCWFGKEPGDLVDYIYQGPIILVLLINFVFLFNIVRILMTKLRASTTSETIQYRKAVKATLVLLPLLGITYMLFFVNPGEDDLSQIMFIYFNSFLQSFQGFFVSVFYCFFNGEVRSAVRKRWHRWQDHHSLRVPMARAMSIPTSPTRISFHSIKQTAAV
T6 sequence (P24387 whole entry): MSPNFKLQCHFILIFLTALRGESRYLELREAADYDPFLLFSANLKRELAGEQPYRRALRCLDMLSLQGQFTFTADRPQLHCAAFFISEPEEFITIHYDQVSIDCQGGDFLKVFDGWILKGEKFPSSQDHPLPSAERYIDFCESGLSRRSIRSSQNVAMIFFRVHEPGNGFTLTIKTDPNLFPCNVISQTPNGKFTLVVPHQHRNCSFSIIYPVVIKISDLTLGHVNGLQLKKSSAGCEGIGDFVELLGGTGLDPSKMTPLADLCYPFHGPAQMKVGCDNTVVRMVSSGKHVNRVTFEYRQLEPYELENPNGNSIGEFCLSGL

[24] = P. falciparum Dd2 growth inhibitors, dose response, SYBR Green, dry powder samples, set 9 (AID 1159568); type: functional, cell-based
[25] = P. falciparum 3D7-ScDHODH growth inhibitors, dose response, SYBR Green, dry powder samples (AID 1159570); type: functional, cell-based;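 also: parasite growth measured after 72 hours of compound exposure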
[26] = P. falciparum Dd2 growth inhibitors, dose response, SYBR Green, cherry-picked samples (AID 1159567); type: functional, cell-based
[27] = HepG2 cell cytotoxicity, dose response, cytotoxicity control, plate reader, dry powder samples (AID 1159569); type: functional, cell-based;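 also: inhibitor potency with signal falling toward the positive control level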
[28] = P. falciparum Dd2 growth inhibitors, dose response, SYBR Green, dry powder samples (AID 1159566); type: functional, cell-based;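 also: potency for growth inhibition with lower SYBR green DNA signal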
[29] = P. falciparum ATP4 D1247Y mutant growth inhibitors, dose response, NITD609-resistant line, SYBR Green, dry powder (AID 1159571); type: functional, cell-based;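 also: parasites synchronized at ring stage by sorbitol before testing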
[30] = biological target: FAD-linked sulfhydryl oxidase ALR (Homo sapiens, UniProt P55789); test: inhibitors of human ALR sulfhydryl oxidase, dose response, biochemical, H2O2 detection, luminescence, cherry-pick (AID 493248)
[31] = HepG2 cell cytotoxicity, dose response, cytotoxicity control, ATP luminescence, cherry-pick, activator set 2 (AID 1053143); type: functional, cell-based
[32] = biological target: Photoreceptor-specific nuclear receptor (Homo sapiens, UniProt Q9Y5X4); type: functional, cell-based;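 also: CHO-S cells with Gal4-NCOR and VP16-NR2E3 two-hybrid luciferase reporter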
[33] = test system: Vero; test: cells; type: functional; conditions: Chlorocebus sabaeus
[34] = HEK293T cytotoxicity, dose response, cytotoxicity control for miR-122 modulator project, cell-based, inhibitor set, cherry-pick, set 2 (AID 720697); type: functional

T1 sequence (Q79MP6 whole entry): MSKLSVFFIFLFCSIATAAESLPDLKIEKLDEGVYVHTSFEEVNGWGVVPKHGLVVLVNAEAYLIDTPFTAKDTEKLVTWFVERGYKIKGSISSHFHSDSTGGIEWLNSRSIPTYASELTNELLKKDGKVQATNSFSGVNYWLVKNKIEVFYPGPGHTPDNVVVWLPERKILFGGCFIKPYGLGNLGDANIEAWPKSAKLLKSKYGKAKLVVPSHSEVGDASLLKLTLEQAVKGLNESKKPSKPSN
Sequence of Beta-lactamase (Salmonella choleraesuis (strain SC-B67), UniProt Q5J463) (Q5J463 whole entry): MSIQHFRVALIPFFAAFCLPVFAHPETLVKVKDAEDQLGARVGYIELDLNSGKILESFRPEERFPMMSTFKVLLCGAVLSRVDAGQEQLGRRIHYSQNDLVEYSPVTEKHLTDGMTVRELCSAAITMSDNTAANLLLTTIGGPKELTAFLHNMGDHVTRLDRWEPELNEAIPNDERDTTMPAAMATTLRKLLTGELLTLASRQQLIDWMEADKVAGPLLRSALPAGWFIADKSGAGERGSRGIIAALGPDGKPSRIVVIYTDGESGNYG
Sequence of Kallikrein-7 (P49862 whole entry): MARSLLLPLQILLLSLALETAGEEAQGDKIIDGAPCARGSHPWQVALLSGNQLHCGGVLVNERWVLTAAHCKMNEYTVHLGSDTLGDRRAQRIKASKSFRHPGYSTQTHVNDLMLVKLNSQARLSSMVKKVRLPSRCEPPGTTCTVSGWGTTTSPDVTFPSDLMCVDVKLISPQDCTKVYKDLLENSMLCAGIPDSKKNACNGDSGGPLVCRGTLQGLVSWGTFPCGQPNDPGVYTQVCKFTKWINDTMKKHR
T4 sequence (P63165 whole entry, the tested form may be a part): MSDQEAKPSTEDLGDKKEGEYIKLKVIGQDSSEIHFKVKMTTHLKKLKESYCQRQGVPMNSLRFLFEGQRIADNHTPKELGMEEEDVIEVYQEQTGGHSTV
Sequence of Photoreceptor-specific nuclear receptor (Q9Y5X4 whole entry, the tested form may be a part): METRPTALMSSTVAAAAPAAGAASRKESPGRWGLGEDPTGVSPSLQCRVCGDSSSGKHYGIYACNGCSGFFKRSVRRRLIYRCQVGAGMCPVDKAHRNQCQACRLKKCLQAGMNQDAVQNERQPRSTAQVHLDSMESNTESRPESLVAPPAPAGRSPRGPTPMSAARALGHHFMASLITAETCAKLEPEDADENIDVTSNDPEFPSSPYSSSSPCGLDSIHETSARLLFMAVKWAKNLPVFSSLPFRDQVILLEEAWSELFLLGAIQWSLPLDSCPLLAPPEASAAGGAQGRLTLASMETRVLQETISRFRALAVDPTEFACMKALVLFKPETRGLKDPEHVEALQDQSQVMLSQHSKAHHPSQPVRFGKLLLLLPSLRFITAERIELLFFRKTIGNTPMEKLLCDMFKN
Sequence of FAD-linked sulfhydryl oxidase ALR (P55789 whole entry): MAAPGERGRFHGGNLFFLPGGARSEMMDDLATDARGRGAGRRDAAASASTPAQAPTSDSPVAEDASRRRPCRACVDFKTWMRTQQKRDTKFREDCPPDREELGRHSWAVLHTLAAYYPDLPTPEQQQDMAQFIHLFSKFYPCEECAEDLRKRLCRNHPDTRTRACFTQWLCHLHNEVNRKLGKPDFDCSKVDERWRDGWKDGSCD

## S=c1[nH]nc(Cn2c(-c3ccccn3)nc3ccccc32)n1-c1ccc2c(c1)OCCO2
[1]
  IC50: > 59.6 µM (inactive)
[2]
  IC50: > 59.6 µM (inactive)
[3]
  IC50: > 59.6 µM (inactive)

## COc1ccccc1-n1c(S)nnc1-c1ccco1
[1]
  IC50: > 59.6 µM (inactive)
[2]
  IC50: > 59.6 µM (inactive)
[3]
  IC50: > 59.6 µM (inactive)

## Cc1cc(=O)n2cccc(O)c2n1
[4]
  CC50: > 40 µM (active)
[5]
  IC50: 9.19 µM (active)
[6]
  IC50: 22.9 µM (active)

## O=C1C=CCCN1S(=O)(=O)/C=C/c1ccccc1
[7]
  AC50: 1.19 µM (active)

## Cc1ccc(CNC(=O)C2CCC(=O)N(CCc3ccccn3)C2)s1 (stereo not given)
[8]
  AC50: 35.6 µM (active)

## Cc1nn(-c2ccccc2)c2c1cc1c(=O)n(C)c(=O)nc-1n2-c1ccccc1F
[9]
  EC50: 52.9 µM (inactive)

## CC1=CCC(C(=O)O)C(C(=O)NC2CCCCC2)C1 (stereo not given)
[10]
  AC50: 10.2 µM (active)
[11]
  IC50: > 66.6 µM (inactive)
[12]
  IC50: 33.8 µM (active)
[13]
  IC50: 20.4 µM (inactive)

## CCn1c(-c2nn(-c3ccccc3)ccc2=O)n[nH]c1=S
[1]
  IC50: > 59.6 µM (inactive)
[2]
  IC50: > 59.6 µM (inactive)
[3]
  IC50: > 59.6 µM (inactive)

## S=C(NCc1ccc(Cl)cc1)NC12CC3CC(CC(C3)C1)C2
[14]
  AC50: 31.8 µM (active)
[15]
  AC50: 5.6 µM (active)
[16]
  AC50: 4.88 µM (active)
[4]
  CC50: 18.8 µM (active)
[17]
  EC50: > 60 µM (not active)
[18]
  AC50: 6.05 µM (active)
[19]
  AC50: 13.1 µM (active)
[20]
  AC50: 8.99 µM (active)
[21]
  EC50: 3.41 µM (active)

## Cc1ccc(CNC(=O)c2cccc3c2C(=O)c2ccc(N4CCC(C)CC4)cc2S3(=O)=O)cc1
[22]
  AC50: 39.3 µM (active)
[23]
  EC50: 5.51 µM (active)

## C[C@H](CO)N1C[C@H](C)[C@H](CN(C)C(=O)C2CCCCC2)Oc2ncc(C#Cc3cccc(F)c3)cc2C1=O
[24]
  AC50: 0.269 µM (active)
[25]
  AC50: 848 nM (active)
[26]
  AC50: 1.39 µM (active)
[27]
  AC50: 49.1 µM (active)
[28]
  AC50: 408 nM (active)
[29]
  AC50: 725 nM (active)

## N#Cc1c(N2CCOCC2)nc(N)c2c(N)nc3c(c12)CC(CCl)O3 (stereo not given)
[9]
  EC50: > 69.5 µM (inactive)

## O=C1C=CCCN1C(=O)/C=C/c1cccc(Br)c1
[7]
  AC50: 0.949 µM (active)

## O=C(NC1CCCCCCC1O)c1ccccc1 (stereo not given)
[7]
  AC50: 35.4 µM (active)

## O=C(c1ccncc1)N1CCCC(N2CCN(c3cccc(C(F)(F)F)c3)CC2)C1 (stereo not given)
[8]
  AC50: 31.8 µM (active)

## Cc1ccc(Nc2nc(-c3ccc(O)cc3O)cs2)nc1
[30]
  AC50: 288 nM (active)
[31]
  AC50: 26 µM (active)

## CN(C)c1ncnc2c1ccn2C1OC(CO)C(O)C1O (stereo not given)
[14]
  AC50: 1.39 µM (active)
[32]
  IC50: 1.45 µM (active)
[33]
  CC50: > 25 µM (active)
[16]
  AC50: 4.51 µM (active)
[18]
  AC50: 3.41 µM (active)
[19]
  AC50: 1.9 µM (active)
[20]
  AC50: 1.89 µM (active)

## O=C(Nc1ccc(C(=O)OC2CCCCC2)cc1)c1ccncc1
[14]
  AC50: 64.2 µM (active)
[19]
  AC50: > 70 µM (inactive)
[20]
  AC50: 13.8 µM (active)

## Cc1ccc(S(=O)(=O)c2nc(-c3ccccc3Cl)oc2N(C)C2CCN(C)CC2)cc1
[22]
  AC50: 23.3 µM (active)

## C[C@H](CO)N1C[C@H](C)[C@H](CN(C)C(=O)C2CCC2)Oc2cc(-c3ccc(C(=O)N(C)C)cc3)ccc2S1(=O)=O
[34]
  AC50: 9.74 µM (active)

## CC(C)C(=O)Nc1ccc2c(c1)C(=O)N(C)[C@H]1CC[C@H](CC(=O)O)O[C@H]1CO2
[34]
  AC50: 0.437 µM (active)

## CCCCn1c(Cc2ccccc2)nnc1SCC(=O)Nc1cc(C)on1
[6]
  IC50: > 50 µM (not active)

## CS(=O)(=O)Nc1ccc(-c2cnc3cccnn23)cc1
[9]
  EC50: 24.1 µM (inactive)

## O=C(Nc1ccccc1F)N1CCCCN2[C@H](CO)[C@H](c3ccc(/C=C/c4ccccc4)cc3)[C@@H]2C1
[24]
  AC50: 12 µM (active)

## COCCNC(=O)c1cc2cc3ccc(OC)cc3nc2o1
[8]
  AC50: 27.7 µM (active)

## O=C(c1ccc2c3n(nc2c1)-c1ccc(Cl)cc1CO3)N1CCCCC1
[31]
  AC50: 26 µM (active)
